Source: patent US4971963A, “Cephem compounds, and use” (Takeda Chemical Industries, Ltd., priority 1988, dated 1990)
Values after ≈ are worked out from the molar mass of the structure shown. Read-outs that look alike come from different tables or passages of the source.

Key:
Assay in all cases: Minimal inhibitory concentration, agar dilution method
Assay type in all cases: cell-based
[1] = system: C. freundii IFO12681; details: Citrobacter freundii, Trypticase soy agar, about 10^8 CFU/ml, 37° C., 18 hours
Protocol: (§1) The Minimal Inhibitory Concentrations of the tested compounds were determined according to the agar dilution method. Namely, 1.0 ml each of aqueous solution of the test compounds diluted by serial dilutions was poured into test petri dishes, subsequently 9.0 ml each of Trypticase soy agar was poured into the dishes and mixed.
(§2) On each of the mixed agar plates, one loopful of bacterial suspension (about 10^8 CFU/ml) of test microorganism was streaked.
(§3) After the incubation at 37° C. for 18 hours, the lowest concentration of the tested compounds in the medium which caused apparently complete inhibition of growth of the test microorganism was taken to be minimal inhibitory concentration.

[2] = system: E. cloacae IFO12937; details: Enterobacter cloacae, Trypticase soy agar, about 10^8 CFU/ml, 37° C., 18 hours
Protocol: as §1, §2, §3

[3] = system: E. coli NIHJ JC-2; details: Escherichia coli, NIHJJC2, Trypticase soy agar, about 10^8 CFU/ml, 37° C., 18 hours
Protocol: as §1, §2, §3

[4] = system: E. coli O-111; details: Escherichia coli, O111, Trypticase soy agar, about 10^8 CFU/ml, 37° C., 18 hours
Protocol: as §1, §2, §3

[5] = system: E. coli T 7; details: Escherichia coli, T7, Trypticase soy agar, about 10^8 CFU/ml, 37° C., 18 hours
Protocol: as §1, §2, §3

[6] = system: K. pneumoniae DT; details: Klebsiella pneumoniae, Trypticase soy agar, about 10^8 CFU/ml, 37° C., 18 hours
Protocol: as §1, §2, §3

[7] = system: M. morganii IFO3168; details: Morganella morganii, Trypticase soy agar, about 10^8 CFU/ml, 37° C., 18 hours
Protocol: as §1, §2, §3

[8] = system: P. aeruginosa IFO3455; details: Pseudomonas aeruginosa, Trypticase soy agar, about 10^8 CFU/ml, 37° C., 18 hours
Protocol: as §1, §2, §3

[9] = system: P. mirabilis IFO3849; details: Proteus mirabilis, Trypticase soy agar, about 10^8 CFU/ml, 37° C., 18 hours
Protocol: as §1, §2, §3

[10] = system: P. vulgaris IFO3988; details: Proteus vulgaris, Trypticase soy agar, about 10^8 CFU/ml, 37° C., 18 hours
Protocol: as §1, §2, §3

[11] = system: S. aureus 1840
Protocol: as §1, §2, §3

[12] = system: S. aureus 308 A-1; details: Staphylococcus aureus, 308A1, Trypticase soy agar, about 10^8 CFU/ml, 37° C., 18 hours
Protocol: as §1, §2, §3

[13] = system: S. aureus FDA 209P; details: Staphylococcus aureus, FDA209P
Protocol: as §1, §2, §3

[14] = system: S. aureus J-108; details: Staphylococcus aureus, J108, Trypticase soy agar, about 10^8 CFU/ml, 37° C., 18 hours
Protocol: as §1, §2, §3

[15] = system: S. aureus N-241; details: Staphylococcus aureus, N241, Trypticase soy agar, about 10^8 CFU/ml, 37° C., 18 hours
Protocol: as §1, §2, §3

[16] = system: S. marcescens IFO12648; details: Serratia marcescens, Trypticase soy agar, about 10^8 CFU/ml, 37° C., 18 hours
Protocol: as §1, §2, §3

[17] = Staphylococcus aureus, S. aureus 1840, Trypticase soy agar, about 10^8 CFU/ml, 37° C., 18 hours, read-out: MIC
[18] = S. aureus FDA 209P, Trypticase soy agar, about 10^8 CFU/ml, 37° C., 18 hours, read-out: MIC

Structure (SMILES) | MIC [1] | MIC [2] | MIC [3] | MIC [4] | MIC [5] | MIC [6] | MIC [7] | MIC [8] | MIC [9] | MIC [10] | MIC [11, 17] | MIC [12] | MIC ([13]; 18 h) | MIC [14] | MIC [15] | MIC [16] | MIC [13, 18] | MIC ([11]; Staphylococcus aureus, 1840, 18 h)
CO/N=C(\C(=O)N[C@@H]1C(=O)N2C(C(=O)O)=C(CSc3nnnn3CCCNC(=N)N)CS[C@H]12)c1csc(N)n1 [Example 8, 7β-[2-(2-Aminothiazol-4-yl)-(Z)-2-methoxyiminoacetamido]-3-[[1-(3-guanidinopropyl)-1H-tetrazol-5-yl]thiomethyl]-3-cephem-4-carboxylic acid] | ≤ 0.1 µg/mL | 0.39 µg/mL (≈ 0.654 µM) | ≤ 0.1 µg/mL | ≤ 0.1 µg/mL | 0.39 µg/mL (≈ 0.654 µM) | ≤ 0.1 µg/mL | ≤ 0.1 µg/mL | 6.25 µg/mL (≈ 10.5 µM) | 0.39 µg/mL (≈ 0.654 µM) | ≤ 0.1 µg/mL | 0.78 µg/mL (≈ 1.31 µM) | 0.78 µg/mL (≈ 1.31 µM) | 0.78 µg/mL (≈ 1.31 µM) | 6.25 µg/mL (≈ 10.5 µM) | 12.5 µg/mL (≈ 20.9 µM) | ≤ 0.1 µg/mL | – | –
N=C(N)CSCCn1nnnc1SCC1=C(C(=O)O)N2C(=O)[C@@H](NC(=O)/C(=N\O)c3csc(N)n3)[C@H]2SC1 [Example 44] | 0.39 µg/mL (≈ 0.65 µM) | 3.13 µg/mL (≈ 5.22 µM) | 0.2 µg/mL (≈ 0.333 µM) | ≤ 0.1 µg/mL | 0.78 µg/mL (≈ 1.3 µM) | 0.2 µg/mL (≈ 0.333 µM) | 0.39 µg/mL (≈ 0.65 µM) | 12.5 µg/mL (≈ 20.8 µM) | 3.13 µg/mL (≈ 5.22 µM) | 0.39 µg/mL (≈ 0.65 µM) | 0.2 µg/mL (≈ 0.333 µM) | ≤ 0.1 µg/mL | – | 3.13 µg/mL (≈ 5.22 µM) | 3.13 µg/mL (≈ 5.22 µM) | 0.39 µg/mL (≈ 0.65 µM) | ≤ 0.1 µg/mL | –
N=C(N)CSc1nnc(SCC2=C(C(=O)O)N3C(=O)[C@@H](NC(=O)/C(=N\O)c4csc(N)n4)[C@H]3SC2)s1 [Example 39, 3-[(2-Amidinomethylthio-1,3,4-thiadiazol-5-yl)thiomethyl]-7β-[2-(2-aminothiazol-4-yl)-(Z)-2-hydroxyiminoacetamido]-3-cephem-4-carboxylic acid] | 0.39 µg/mL (≈ 0.664 µM) | 3.13 µg/mL (≈ 5.33 µM) | 0.39 µg/mL (≈ 0.664 µM) | ≤ 0.1 µg/mL | 1.56 µg/mL (≈ 2.65 µM) | ≤ 0.1 µg/mL | 0.39 µg/mL (≈ 0.664 µM) | 12.5 µg/mL (≈ 21.3 µM) | 1.56 µg/mL (≈ 2.65 µM) | 0.78 µg/mL (≈ 1.33 µM) | 0.39 µg/mL (≈ 0.664 µM) | 0.2 µg/mL (≈ 0.34 µM) | – | 1.56 µg/mL (≈ 2.65 µM) | 1.56 µg/mL (≈ 2.65 µM) | 0.78 µg/mL (≈ 1.33 µM) | 0.2 µg/mL (≈ 0.34 µM) | –
N#Cc1c(SCC(=N)N)nsc1SCC1=C(C(=O)O)N2C(=O)[C@@H](NC(=O)/C(=N\O)c3csc(N)n3)[C@H]2SC1 [Example 42, 3-[(3-Amidinomethylthio-4-cyanoisothiazol-5-yl)thiomethyl]-7β-[2-(2-aminothiazol-4-yl)-(Z)-2-hydroxyiminoacetamido]-3-cephem-4-carboxylic acid] | 0.78 µg/mL (≈ 1.28 µM) | 3.13 µg/mL (≈ 5.12 µM) | 0.78 µg/mL (≈ 1.28 µM) | ≤ 0.1 µg/mL | 1.56 µg/mL (≈ 2.55 µM) | 0.78 µg/mL (≈ 1.28 µM) | 0.78 µg/mL (≈ 1.28 µM) | 12.5 µg/mL (≈ 20.4 µM) | 3.13 µg/mL (≈ 5.12 µM) | 0.78 µg/mL (≈ 1.28 µM) | 0.2 µg/mL (≈ 0.327 µM) | ≤ 0.1 µg/mL | – | 0.78 µg/mL (≈ 1.28 µM) | 0.78 µg/mL (≈ 1.28 µM) | 1.56 µg/mL (≈ 2.55 µM) | ≤ 0.1 µg/mL | –
CO/N=C(\C(=O)N[C@@H]1C(=O)N2C(C(=O)O)=C(CSc3snc(SCC(=N)N)c3C#N)CS[C@H]12)c1csc(N)n1 [Example 15, 3-[(3-Amidinomethylthio-4-cyanoisothiazol-5-yl)thiomethyl]-7β-[2-(2-aminothiazol-4-yl)-(Z)-2-methoxyiminoacetamido]-3-cephem-4-carboxylic acid] | 0.2 µg/mL (≈ 0.32 µM) | 0.78 µg/mL (≈ 1.25 µM) | 0.39 µg/mL (≈ 0.623 µM) | ≤ 0.1 µg/mL | 0.39 µg/mL (≈ 0.623 µM) | 0.2 µg/mL (≈ 0.32 µM) | 0.2 µg/mL (≈ 0.32 µM) | 6.25 µg/mL (≈ 9.99 µM) | 0.78 µg/mL (≈ 1.25 µM) | 0.2 µg/mL (≈ 0.32 µM) | – | 0.2 µg/mL (≈ 0.32 µM) | – | 6.25 µg/mL (≈ 9.99 µM) | 6.25 µg/mL (≈ 9.99 µM) | 0.39 µg/mL (≈ 0.623 µM) | 0.2 µg/mL (≈ 0.32 µM) | 0.39 µg/mL (≈ 0.623 µM)
